According to US9096601B2 (CSPC Zhongqi Pharmaceutical Technology (Shijiazhuang) Co., …, priority 2010, dated 2015):

Tests used:
ALK = ALK (Homo sapiens (Human), UniProt Q9UM73); test: Kinase inhibitory activity, isotopic labeling (γ-33P-ATP); type: biochemical; details: compound at 10 μM
BTK = BTK (Homo sapiens (Human), UniProt Q06187); test: as above; type: biochemical; details: compound at 10 μM
FLT3 = FLT3 (Homo sapiens (Human), UniProt P36888); test: as above; type: biochemical; details: compound at 10 μM
MET = MET (Homo sapiens (Human), UniProt P08581); test: as above; type: biochemical; details: compound at 10 μM
PDGFRα = PDGFRα (Homo sapiens (Human), UniProt P16234); test: as above; type: biochemical; details: compound at 10 μM
VEGFR2 = VEGFR2 (Homo sapiens (Human), UniProt P35968); test: as above; type: biochemical; details: ATP 90 μM (Km)
Outline: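 Substrate phosphorylation by each kinase (5-10 mU) is measured through transfer of the γ-33P label from ATP in MOPS buffer, pH 7.0, containing MnCl2 and magnesium acetate. Filter-captured counts at a series of compound concentrations yield the IC50.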

c-KIT = c-KIT (Homo sapiens (Human), UniProt P10721); test: as above; type: biochemical; details: compound at 10 μM
c-SRC = c-SRC (Homo sapiens (Human), UniProt P12931); test: as above; type: biochemical; details: compound at 10 μM
[1] = tested on: acute myelogenous leukemia cell strain MV4-11; test: In-vitro tumor cell proliferation inhibition, MTT; type: cell-based, human; details: 72 hours
[2] = tested on: breast carcinoma cell strain BT474; test: In-vitro tumor cell proliferation inhibition, MTT; type: cell-based, human; details: 72 hours
Outline: (§1)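 A431, HCC827, SW620 and BT474 cells (HCC827 seeded at 6×10^4 cells/ml) treated overnight-after-plating with graded compound concentrations for 72 h at 37° C; MTT read at 570 nm. Inhibition calculated versus untreated control, triplicate wells, ≥3 repeats; reported as IC50 or inhibitory rate.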

[3] = tested on: breast carcinoma cell strain MDA-MB-468; test: In-vitro tumor cell proliferation inhibition, MTT; type: cell-based, human; details: 72 hours
[4] = tested on: chronic granulocytic leukemia cell strain K562; test: In-vitro tumor cell proliferation inhibition, MTT; type: cell-based, human; details: 72 hours
[5] = tested on: colon cancer cell strain HCT116; test: In-vitro tumor cell proliferation inhibition, MTT; type: cell-based, human; details: 72 hours
[6] = tested on: colon cancer cell strain SW480; test: In-vitro tumor cell proliferation inhibition, MTT; type: cell-based, human; details: 72 hours
[7] = tested on: colon cancer cell strain SW620; test: In-vitro tumor cell proliferation inhibition, MTT; type: cell-based, human; details: 72 hours
Outline: as §1

[8] = tested on: gastric cancer cell strain MK-45; test: In-vitro tumor cell proliferation inhibition, MTT; type: cell-based, human; details: 72 hours, read-out: MK45 (IC50)
[9] = tested on: liver cancer cell strain Hep G2; test: In-vitro tumor cell proliferation inhibition, MTT; type: cell-based, human; details: 72 hours, read-out: HEPG2 (IC50)
[10] = tested on: malignant melanoma cell strain A375; test: In-vitro tumor cell proliferation inhibition, MTT; type: cell-based, human; details: 72 hours
[11] = tested on: squamous cell carcinoma cell strain A431; test: In-vitro tumor cell proliferation inhibition, MTT; type: cell-based, human; details: 72 hours
Outline: as §1

c-SRC, sequence (P12931 whole entry, looked up): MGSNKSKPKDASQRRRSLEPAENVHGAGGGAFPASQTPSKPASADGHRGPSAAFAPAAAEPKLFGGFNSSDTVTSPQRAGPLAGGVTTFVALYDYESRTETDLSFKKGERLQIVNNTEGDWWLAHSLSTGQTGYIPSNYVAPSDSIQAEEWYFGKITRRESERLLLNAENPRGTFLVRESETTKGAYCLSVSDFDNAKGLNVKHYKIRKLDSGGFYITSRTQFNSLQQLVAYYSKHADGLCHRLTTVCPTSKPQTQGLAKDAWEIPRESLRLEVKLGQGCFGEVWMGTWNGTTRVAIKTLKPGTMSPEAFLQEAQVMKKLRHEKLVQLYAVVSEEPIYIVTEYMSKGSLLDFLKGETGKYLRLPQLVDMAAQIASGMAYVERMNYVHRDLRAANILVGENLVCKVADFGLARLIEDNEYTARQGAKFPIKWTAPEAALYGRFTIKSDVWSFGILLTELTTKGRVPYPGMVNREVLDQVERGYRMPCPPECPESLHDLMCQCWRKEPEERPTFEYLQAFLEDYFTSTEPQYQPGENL
ALK, sequence (Q9UM73 19-1620): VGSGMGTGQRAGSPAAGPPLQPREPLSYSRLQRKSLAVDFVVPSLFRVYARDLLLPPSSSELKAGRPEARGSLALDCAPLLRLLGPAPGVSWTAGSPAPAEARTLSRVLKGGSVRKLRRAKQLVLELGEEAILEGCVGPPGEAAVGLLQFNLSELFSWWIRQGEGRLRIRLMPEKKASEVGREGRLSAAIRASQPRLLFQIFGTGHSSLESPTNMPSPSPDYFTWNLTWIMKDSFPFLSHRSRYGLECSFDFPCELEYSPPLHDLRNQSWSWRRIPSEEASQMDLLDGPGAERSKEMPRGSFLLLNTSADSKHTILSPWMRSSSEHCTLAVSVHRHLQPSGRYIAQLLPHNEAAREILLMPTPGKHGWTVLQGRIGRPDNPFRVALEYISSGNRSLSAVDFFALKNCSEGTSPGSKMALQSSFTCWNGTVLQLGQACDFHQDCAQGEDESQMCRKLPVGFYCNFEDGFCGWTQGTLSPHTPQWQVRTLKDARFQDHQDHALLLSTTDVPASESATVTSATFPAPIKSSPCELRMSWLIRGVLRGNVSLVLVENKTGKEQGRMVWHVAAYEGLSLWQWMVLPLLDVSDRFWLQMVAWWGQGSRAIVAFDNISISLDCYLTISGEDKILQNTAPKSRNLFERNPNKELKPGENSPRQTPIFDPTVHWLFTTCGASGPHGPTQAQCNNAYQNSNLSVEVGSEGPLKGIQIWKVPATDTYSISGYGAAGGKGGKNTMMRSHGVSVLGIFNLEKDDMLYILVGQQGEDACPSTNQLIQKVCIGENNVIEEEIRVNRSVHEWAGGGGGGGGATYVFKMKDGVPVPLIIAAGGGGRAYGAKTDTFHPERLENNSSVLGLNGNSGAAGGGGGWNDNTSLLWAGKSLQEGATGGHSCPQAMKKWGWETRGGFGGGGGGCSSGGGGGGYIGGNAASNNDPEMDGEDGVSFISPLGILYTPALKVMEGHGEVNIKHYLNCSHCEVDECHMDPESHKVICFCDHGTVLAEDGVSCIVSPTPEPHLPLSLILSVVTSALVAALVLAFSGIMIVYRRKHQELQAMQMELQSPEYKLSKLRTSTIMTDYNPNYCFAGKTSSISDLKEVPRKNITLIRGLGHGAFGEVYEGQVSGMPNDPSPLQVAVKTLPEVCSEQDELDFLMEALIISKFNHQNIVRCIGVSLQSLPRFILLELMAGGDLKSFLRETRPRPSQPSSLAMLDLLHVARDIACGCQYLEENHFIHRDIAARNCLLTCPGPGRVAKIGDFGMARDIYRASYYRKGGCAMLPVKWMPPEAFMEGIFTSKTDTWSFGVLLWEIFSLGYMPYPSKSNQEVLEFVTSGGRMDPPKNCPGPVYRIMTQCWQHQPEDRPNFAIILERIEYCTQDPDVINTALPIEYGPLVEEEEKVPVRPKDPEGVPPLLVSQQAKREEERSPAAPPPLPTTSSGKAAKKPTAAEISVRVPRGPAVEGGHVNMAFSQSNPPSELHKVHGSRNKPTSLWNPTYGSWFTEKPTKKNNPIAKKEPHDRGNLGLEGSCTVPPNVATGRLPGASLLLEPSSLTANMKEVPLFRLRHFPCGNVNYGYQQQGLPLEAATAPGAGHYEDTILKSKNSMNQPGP
FLT3, sequence (P36888 27-993): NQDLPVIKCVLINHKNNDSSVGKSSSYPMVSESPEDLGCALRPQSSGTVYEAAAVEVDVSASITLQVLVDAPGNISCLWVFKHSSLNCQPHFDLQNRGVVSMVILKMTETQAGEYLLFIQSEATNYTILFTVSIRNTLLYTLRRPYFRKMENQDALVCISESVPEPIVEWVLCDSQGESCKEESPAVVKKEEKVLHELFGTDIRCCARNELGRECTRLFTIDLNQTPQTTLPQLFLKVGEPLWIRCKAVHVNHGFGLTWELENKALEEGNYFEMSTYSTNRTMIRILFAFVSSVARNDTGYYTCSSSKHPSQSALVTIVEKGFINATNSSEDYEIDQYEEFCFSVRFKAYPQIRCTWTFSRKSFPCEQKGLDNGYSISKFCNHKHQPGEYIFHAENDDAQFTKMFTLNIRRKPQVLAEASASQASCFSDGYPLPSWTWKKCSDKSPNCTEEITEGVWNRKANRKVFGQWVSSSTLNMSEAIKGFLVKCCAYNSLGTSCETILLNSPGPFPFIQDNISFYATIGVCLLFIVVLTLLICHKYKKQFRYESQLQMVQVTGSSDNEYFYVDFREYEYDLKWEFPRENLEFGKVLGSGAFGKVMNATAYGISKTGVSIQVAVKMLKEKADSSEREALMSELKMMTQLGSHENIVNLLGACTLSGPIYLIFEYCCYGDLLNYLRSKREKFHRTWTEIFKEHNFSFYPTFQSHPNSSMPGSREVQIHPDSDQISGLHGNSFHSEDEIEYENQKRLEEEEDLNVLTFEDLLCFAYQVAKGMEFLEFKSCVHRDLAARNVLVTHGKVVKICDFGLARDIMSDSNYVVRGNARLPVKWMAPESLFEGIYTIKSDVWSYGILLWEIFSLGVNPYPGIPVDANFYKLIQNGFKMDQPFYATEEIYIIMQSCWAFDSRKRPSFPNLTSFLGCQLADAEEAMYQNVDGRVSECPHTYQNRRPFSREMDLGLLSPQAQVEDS
c-KIT, sequence (P10721 26-976): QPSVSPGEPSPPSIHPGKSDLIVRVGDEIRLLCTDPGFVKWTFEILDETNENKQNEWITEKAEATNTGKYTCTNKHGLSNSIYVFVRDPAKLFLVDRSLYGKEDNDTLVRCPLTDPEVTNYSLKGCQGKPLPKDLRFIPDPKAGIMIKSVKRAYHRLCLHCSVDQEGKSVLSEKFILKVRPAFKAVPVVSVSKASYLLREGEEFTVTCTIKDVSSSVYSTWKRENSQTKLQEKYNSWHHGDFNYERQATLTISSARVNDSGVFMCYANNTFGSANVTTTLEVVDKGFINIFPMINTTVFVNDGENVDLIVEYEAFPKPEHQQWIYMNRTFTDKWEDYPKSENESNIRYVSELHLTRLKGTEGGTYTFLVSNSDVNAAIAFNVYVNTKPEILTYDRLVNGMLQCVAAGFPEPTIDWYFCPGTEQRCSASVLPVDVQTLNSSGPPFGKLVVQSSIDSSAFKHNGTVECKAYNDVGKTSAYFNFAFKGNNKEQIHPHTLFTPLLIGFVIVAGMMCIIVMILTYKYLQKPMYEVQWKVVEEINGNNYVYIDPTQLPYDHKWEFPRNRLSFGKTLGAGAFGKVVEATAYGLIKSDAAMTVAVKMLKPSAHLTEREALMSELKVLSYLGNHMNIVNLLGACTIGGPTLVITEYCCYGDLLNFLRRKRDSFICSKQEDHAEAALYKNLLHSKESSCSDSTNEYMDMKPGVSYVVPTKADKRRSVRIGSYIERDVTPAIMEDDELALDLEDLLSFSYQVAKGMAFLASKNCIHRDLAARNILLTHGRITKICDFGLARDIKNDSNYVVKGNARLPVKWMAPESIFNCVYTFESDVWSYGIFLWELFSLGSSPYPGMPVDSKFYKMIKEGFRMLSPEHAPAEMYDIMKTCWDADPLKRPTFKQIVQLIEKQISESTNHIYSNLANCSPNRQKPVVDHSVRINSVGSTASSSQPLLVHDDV
BTK, sequence (Q06187 whole entry): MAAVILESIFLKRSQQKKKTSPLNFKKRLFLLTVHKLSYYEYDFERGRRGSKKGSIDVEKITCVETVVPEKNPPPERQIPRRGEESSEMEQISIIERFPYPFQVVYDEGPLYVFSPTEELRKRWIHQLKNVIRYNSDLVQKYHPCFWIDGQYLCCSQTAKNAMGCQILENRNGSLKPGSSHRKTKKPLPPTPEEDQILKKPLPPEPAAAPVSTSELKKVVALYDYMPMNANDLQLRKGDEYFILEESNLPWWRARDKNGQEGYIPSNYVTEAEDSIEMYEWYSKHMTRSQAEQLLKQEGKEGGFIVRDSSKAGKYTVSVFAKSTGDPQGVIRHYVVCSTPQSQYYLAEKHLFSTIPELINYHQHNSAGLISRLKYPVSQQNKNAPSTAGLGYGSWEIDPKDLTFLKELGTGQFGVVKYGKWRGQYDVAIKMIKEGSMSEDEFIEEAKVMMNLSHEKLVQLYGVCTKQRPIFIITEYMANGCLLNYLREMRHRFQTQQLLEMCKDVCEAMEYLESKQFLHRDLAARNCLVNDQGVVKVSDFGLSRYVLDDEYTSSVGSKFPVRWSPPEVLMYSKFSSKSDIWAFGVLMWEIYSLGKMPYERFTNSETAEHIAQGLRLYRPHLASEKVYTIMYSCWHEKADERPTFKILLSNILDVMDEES

Question: For `CC(C)n1c(Nc2cccnc2)nc2cnc(Nc3ccc(N4CCN(C)CC4)cc3)nc21` [Compounds 8-29], which “The kinase activity inhibitory rate (%) by the tested compounds at 10 μM ALK” value (ALK) is on record?
Answer: 15%

Question: And the “The kinase activity inhibitory rate (%) by the tested compounds at 10 μM BTK” value (BTK)?
Answer: 60%

Question: And the “The kinase activity inhibitory rate (%) by the tested compounds at 10 μM FLT3” value (FLT3)?
Answer: 99%

Question: And the “The kinase activity inhibitory rate (%) by the tested compounds at 10 μM MET” value (MET)?
Answer: 50%

Question: What about the “The kinase activity inhibitory rate (%) by the tested compounds at 10 μM PDGFRα” value (PDGFRα) of the same molecule?
Answer: 42%

Question: What about the IC50 (VEGFR2) of the same molecule?
Answer: > 1000 nM

Question: What about the “The kinase activity inhibitory rate (%) by the tested compounds at 10 μM c-KIT” value (c-KIT) of the same molecule?
Answer: 36%

Question: And the “The kinase activity inhibitory rate (%) by the tested compounds at 10 μM c-SRC” value (c-SRC)?
Answer: 97%

Question: And the IC50 [1]?
Answer: 4 nM

Question: And the IC50 [2]?
Answer: 2260 nM

Question: And the IC50 [3]?
Answer: 8120 nM

Question: And the IC50 [4]?
Answer: 240 nM

Question: What about the IC50 [5] of the same molecule?
Answer: 2480 nM

Question: And the IC50 [6]?
Answer: > 10000 nM

Question: What about the IC50 [7] of the same molecule?
Answer: 5800 nM

Question: What about the IC50 [8] of the same molecule?
Answer: 8170 nM

Question: What about the IC50 [9] of the same molecule?
Answer: > 10000 nM

Question: What about the IC50 [10] of the same molecule?
Answer: 1880 nM

Question: What about the IC50 [11] of the same molecule?
Answer: 9020 nM

Question: Which results are given for `CC(C)n1c(NC2CCCCC2)nc2cnc(Nc3ccc(N4CCN(C)CC4)cc3)nc21` [Compounds 8-30]?
Answer: The kinase activity inhibitory rate (%) by the tested compounds at 10 μM ALK (ALK): 8%; The kinase activity inhibitory rate (%) by the tested compounds at 10 μM BTK (BTK): 25%; The kinase activity inhibitory rate (%) by the tested compounds at 10 μM FLT3 (FLT3): 43%; The kinase activity inhibitory rate (%) by the tested compounds at 10 μM MET (MET): 0%; The kinase activity inhibitory rate (%) by the tested compounds at 10 μM PDGFRα (PDGFRα): 21%; IC50 (VEGFR2): > 1000 nM; The kinase activity inhibitory rate (%) by the tested compounds at 10 μM c-KIT (c-KIT): 0%; The kinase activity inhibitory rate (%) by the tested compounds at 10 μM c-SRC (c-SRC): 67%; IC50 [1]: 7960 nM; IC50 [2]: 4460 nM; IC50 [3]: > 10000 nM; IC50 [4]: 5760 nM; IC50 [5]: > 10000 nM; IC50 [6]: > 10000 nM; IC50 [7]: 4220 nM; IC50 [8]: 5470 nM; IC50 [9]: > 10000 nM; IC50 [10]: > 10000 nM; IC50 [11]: > 10000 nM

Question: How did the “The kinase activity inhibitory rate (%) by the tested compounds at 10 μM ALK” value (ALK) turn out when `C=CC(=O)Nc1cccc(Nc2ncc3nc(Nc4ccccc4)n(C(C)C)c3n2)c1` [Compounds 8-38] was run?
Answer: 22%

Question: What about the “The kinase activity inhibitory rate (%) by the tested compounds at 10 μM BTK” value (BTK) of the same molecule?
Answer: 93%

Question: And the “The kinase activity inhibitory rate (%) by the tested compounds at 10 μM FLT3” value (FLT3)?
Answer: 86%

Question: And the “The kinase activity inhibitory rate (%) by the tested compounds at 10 μM MET” value (MET)?
Answer: 74%

Question: What about the “The kinase activity inhibitory rate (%) by the tested compounds at 10 μM PDGFRα” value (PDGFRα) of the same molecule?
Answer: 55%

Question: And the IC50 (VEGFR2)?
Answer: > 1000 nM

Question: What about the “The kinase activity inhibitory rate (%) by the tested compounds at 10 μM c-KIT” value (c-KIT) of the same molecule?
Answer: 63%

Question: What about the “The kinase activity inhibitory rate (%) by the tested compounds at 10 μM c-SRC” value (c-SRC) of the same molecule?
Answer: 93%

Question: And the IC50 [1]?
Answer: 730 nM

Question: What about the IC50 [2] of the same molecule?
Answer: 1680 nM

Question: What about the IC50 [3] of the same molecule?
Answer: 280 nM

Question: And the IC50 [4]?
Answer: 268 nM

Question: What about the IC50 [5] of the same molecule?
Answer: 443 nM

Question: What about the IC50 [6] of the same molecule?
Answer: > 10000 nM

Question: And the IC50 [7]?
Answer: 370 nM

Question: And the IC50 [8]?
Answer: 1790 nM

Question: What about the IC50 [9] of the same molecule?
Answer: 2900 nM

Question: And the IC50 [10]?
Answer: > 10000 nM

Question: What about the IC50 [11] of the same molecule?
Answer: 179 nM
